Laboratory results as given in US8618301B2, “5-phenylpyrazolopyridine derivatives, preparation and therapeutic use thereof” (Sanofi, priority 2009, dated 2013).

Key:
mouse Nurr1 receptor = molecular target: T1, mouse Nurr1 receptor (Mus musculus, UniProt Q06219); experiment: In vitro activity on N2A cells (8NBRE-luciferase reporter); type: cell-based; settings: N2A-8NBRE cells, 24 hours incubation
T1 construct: a cell line (N2A) endogenously expressing the mouse Nurr1 receptor; host or cells: Neuro-2A (N2A) mouse neuroblastoma cells stably transfected with 8NBRE-luciferase
Procedure: The compounds according to the invention have formed the subject of pharmacological assays which make it possible to determine their modulatory effect on NOT. Evaluation of the In Vitro Activity on N2A Cells
The activity of the compounds according to the invention was evaluated on a cell line (N2A) endogenously expressing the mouse Nurr1 receptor and stably transfected with the NOT binding response element (NBRE) coupled to the luciferase reporter gene. The assays were carried out according to the procedure described below.
The Neuro-2A cell line comes from a standard commercial source (ATCC). The Neuro-2A clone was obtained, from a spontaneous tumour originating from an A albino mouse strain, by R. J Klebe et al. This Neuro-2A line is subsequently stably transfected with 8NBRE-luciferase. The N2A-8NBRE cells are cultured until confluence in 75 cm^2 culture flasks containing DMEM supplemented with 10% of foetal calf serum, 4.5 g/l of glucose and 0.4 mg/ml of geneticin. After a week of culture, the cells are recovered with 0.25% trypsin for 30 seconds and then resuspended in DMEM without phenol red, containing 4.5 g/l of glucose and 10% of Hyclone delipidized serum, and deposited into transparent-bottom 96-well white plates. The cells are deposited at a rate of 60 000 per well in 75 μl for 24 hours before the addition of the products. The products are applied in 25 μl and incubated for a further 24 hours. On the day of the measurement, an equivalent volume (100 μl) of Steadylite is added to each well and then left for a period of 30 minutes in order to obtain complete cell lysis and maximum signal production. The plates are subsequently measured in a luminescence counter for microplates after having been sealed with an adhesive film. The products are prepared in the form of a stock solution at 10^−2M and then diluted in 100% of DMSO. Each product concentration is prediluted in culture medium before incubation with the cells, thus containing 0.625% final concentration of DMSO.

T1 sequence (Q06219 whole entry): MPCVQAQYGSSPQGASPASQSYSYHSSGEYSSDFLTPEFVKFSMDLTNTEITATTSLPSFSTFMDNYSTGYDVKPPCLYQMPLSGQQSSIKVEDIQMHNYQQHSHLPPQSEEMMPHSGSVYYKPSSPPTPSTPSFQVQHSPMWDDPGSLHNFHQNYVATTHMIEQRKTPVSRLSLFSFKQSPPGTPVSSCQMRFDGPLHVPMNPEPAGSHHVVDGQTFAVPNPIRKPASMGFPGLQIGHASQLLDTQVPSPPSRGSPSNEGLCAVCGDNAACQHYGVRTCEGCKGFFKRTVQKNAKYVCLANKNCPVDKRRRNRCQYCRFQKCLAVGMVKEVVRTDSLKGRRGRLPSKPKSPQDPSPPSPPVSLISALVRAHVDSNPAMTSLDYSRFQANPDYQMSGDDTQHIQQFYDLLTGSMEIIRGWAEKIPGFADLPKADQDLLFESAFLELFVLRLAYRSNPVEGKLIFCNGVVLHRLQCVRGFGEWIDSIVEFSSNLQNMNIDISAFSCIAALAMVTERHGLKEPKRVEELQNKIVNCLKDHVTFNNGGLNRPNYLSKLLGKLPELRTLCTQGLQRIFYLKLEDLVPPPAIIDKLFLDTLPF

Row | EC50 (mouse Nurr1 receptor) | melting point | Structure (SMILES)
1 |  | 159 to 161 °C | CC(C)(O)c1cccc(-c2ccn3nc(-c4ccc(Cl)cc4)cc3c2)c1 [Compound 2, 2-{3-[2-(4-chlorophenyl)pyrazolo[1,5-a]pyridin-5-yl]phenyl}propan-2-ol]
2 |  | 93 to 95 °C | CC(O)c1cccc(-c2ccn3nc(-c4ccc(Cl)cc4)cc3c2)c1 (stereo not drawn) [Compound 3, 1-{3-[2-(4-chlorophenyl)pyrazolo[1,5-a]pyridin-5-yl]phenyl}ethanol]
3 |  | 141 to 143 °C | OCc1cccc(-c2ccn3nc(-c4ccc(F)cc4)cc3c2)c1 [Compound 6, {3-[2-(4-fluorophenyl)pyrazolo[1,5-a]pyridin-5-yl]phenyl}methanol]
4 |  | 162 to 164 °C | CC(C)(O)c1cccc(-c2ccn3nc(-c4ccc(F)cc4)cc3c2)c1 [Compound 7, 2-{3-[2-(4-fluorophenyl)pyrazolo[1,5-a]pyridin-5-yl]phenyl}propan-2-ol]
5 |  | 132 to 134 °C | CC(O)c1cccc(-c2ccn3nc(-c4ccc(F)cc4)cc3c2)c1 (stereo not drawn) [Compound 8, 1-{3-[2-(4-fluorophenyl)pyrazolo[1,5-a]pyridin-5-yl]phenyl}ethanol]

More lines, now with the values behind:

Row | Structure (SMILES) | EC50 (mouse Nurr1 receptor) | melting point
6 | OCc1cccc(-c2ccn3nc(-c4ccc(Cl)cc4)cc3c2)c1 [Compound 1, {3-[2-(4-chlorophenyl)pyrazolo[1,5-a]pyridin-5-yl]phenyl}methanol] | 0.2 nM | 161 to 164 °C
7 | OCC1(c2cccc(-c3ccn4nc(-c5ccc(Cl)cc5)cc4c3)c2)CC1 [Compound 4, 1-{3-[2-(4-chlorophenyl)pyrazolo[1,5-a]pyridin-5-yl]phenyl}cyclopropylmethanol] |  | 141 to 143 °C
8 | OCc1c(F)ccc(-c2ccn3nc(-c4ccc(Cl)cc4)cc3c2)c1F [Compound 5, {3-[2-(4-chlorophenyl)pyrazolo[1,5-a]pyridin-5-yl]-2,6-difluorophenyl}-methanol] |  | 190 to 192 °C
9 | COCc1cccc(-c2ccn3nc(-c4ccc(Cl)cc4)cc3c2)c1 [Compound 9, 2-(4-chlorophenyl)-5-(3-methoxymethylphenyl)pyrazolo[1,5-a]pyridine] |  | 130 to 132 °C
10 | OCc1ccc(-c2ccn3nc(-c4ccc(Cl)cc4)cc3c2)cc1 [Compound 10, {4-[2-(4-chlorophenyl)pyrazolo[1,5-a]pyridin-5-yl]phenyl}methanol] |  | 214 to 216 °C
11 | OCc1ccccc1-c1ccn2nc(-c3ccc(Cl)cc3)cc2c1 [Compound 11, {2-[2-(4-chlorophenyl)pyrazolo[1,5-a]pyridin-5-yl]phenyl}methanol] | 1.7 nM | 144 to 146 °C
12 | OC1CCc2ccc(-c3ccn4nc(-c5ccc(Cl)cc5)cc4c3)cc21 (stereo not drawn) [Compound 12, 6-[2-(4-chlorophenyl)pyrazolo[1,5-a]pyridin-5-yl]indan-1-ol] | 164 nM | 181 to 183 °C
